8 compounds from US5952307A, “Basic α-aminoalkylphosphonate derivatives” (priority 1997, dated 1999) can be followed below.

Each structure is given as a SMILES string.

Format in all cases: biochemical
Assay [1] addresses T1, rat granzyme K (Rattus norvegicus, UniProt P49864).
T1 sequence (P49864 26-258): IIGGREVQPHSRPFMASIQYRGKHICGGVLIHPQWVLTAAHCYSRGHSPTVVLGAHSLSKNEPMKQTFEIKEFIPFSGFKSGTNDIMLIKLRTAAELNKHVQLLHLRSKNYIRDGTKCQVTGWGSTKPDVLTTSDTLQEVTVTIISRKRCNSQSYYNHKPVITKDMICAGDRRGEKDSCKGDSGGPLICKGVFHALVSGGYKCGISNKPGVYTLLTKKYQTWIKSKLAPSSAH
Description: Inactivation rate of rat granzyme K, incubation method. Conditions: Table I; 0.1M Hepes, 0.01M CaCl2 pH 7.5, 25° C., 7.1% DMSO, substrate Z--Arg--SBzl; NI = no inhibition after 25 min of incubation. The gist of the method:
(§1)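 Inhibitor in DMSO added to enzyme (0.01-2.3 μM) in 0.1 M HEPES, 0.01 M CaCl2, pH 7.5, 25° C (DMSO 7.6% for granzyme A, 7.1% for granzyme K); residual activity on Z-Arg-SBzl with DTNB read at intervals. Kobs from ln vt/vo vs time plots.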

The target of assay [2] is T2, human granzyme A (Homo sapiens, UniProt P12544).
T2 sequence (P12544 29-262): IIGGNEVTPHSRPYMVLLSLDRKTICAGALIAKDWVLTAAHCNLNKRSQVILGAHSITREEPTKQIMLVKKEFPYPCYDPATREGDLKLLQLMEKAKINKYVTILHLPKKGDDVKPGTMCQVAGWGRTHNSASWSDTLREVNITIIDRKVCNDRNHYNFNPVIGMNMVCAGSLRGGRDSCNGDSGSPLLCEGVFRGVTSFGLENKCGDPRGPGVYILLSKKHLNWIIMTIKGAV
Nature of the assay: Inactivation rate of human granzyme A, incubation method. Particulars: Table I; 0.1M Hepes, 0.01M CaCl2 pH 7.5, 25° C., 7.6% DMSO, substrate Z--Arg--SBzl. The method, boiled down: as §1

Assay [3] deals with mast cell tryptase (Homo sapiens, UniProt Q15661). Nature of the assay: Inactivation rate of mast cell tryptase, incubation method. Particulars: for kobsd /[I] mast cell tryptase: Table I, 0.1M Hepes, 10% glycerol, 10 mM heparin, pH 7.5, 25° C., 7.1% DMSO, NI = no inhibition after 25 min of incubation; for kobs /[I] mast cell tryptase: Table II, 0.07 μM tryptase, 20-66 μM inhibitor, Hepes pH 7.5, heparin, 9% glycerol, 8% DMSO, 25° C., NI = no inhibition. The gist of the method:
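Incubation method at 25 °C: 0.07 μM tryptase with 20–66 μM inhibitor in Hepes pH 7.5 containing heparin, glycerol and DMSO. Aliquots were withdrawn at intervals for residual activity on Z-Arg-SBzl or Z-Lys-SBzl with DTNB. Pseudo-first-order kobs came from ln(vt/v0) versus time.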

The test system of assay [4] is rat granzyme A. Description: Inactivation rate of rat granzyme A, incubation method. Particulars: Table I; 0.1M Hepes, 0.01M CaCl2 pH 7.5, 25° C., 7.6% DMSO, substrate Z--Arg--SBzl. The method, then:
Inactivation rates of serine proteases by aryl diesters of peptidyl derivatives of α-aminoalkylphosphonates were measured by the incubation method. An aliquot of inhibitor (25 or 50 μl) in Me2 SO was added to a buffered enzyme solution (0.01-2.3 μM) to initiate the inactivation. Aliquots (50 μl) were withdrawn at various intervals and the residual enzymatic activity was measured. Me2 SO concentration in the reaction mixture was 8-12% (v/v). A 0.1 M HEPES, 0.01 M CaCl2, pH 7.5 buffer was utilized for trypsin and trypsin-like enzymes. A 0.1 M HEPES, 0.5 M NaCl, pH 7.5, was utilized for the other serine proteases. Peptide thioesters or peptide nitroanilides with the appropriate sequences were used as substrates for various serine proteases. All peptide thioesters hydrolysis rates were measured with the assay mixture containing 4,4'-dithiodipyridine {ε324 =19800 M^-1 cm^-1; Grasetti & Murray, Arch. Biochem. Biophys. 1967, 119, 41-48}. Peptide 4-nitroanilide hydrolysis was measured at 410 nm {ε410 =8800 M^-1 cm^-1; Erlanger et al., Arch. Biochem. Biophys. 1961, 95, 271-278}. First order inactivation rate constants (Kobs) were obtained from plots of In vt /vo vs time, and the correlation coefficients were greater then 0.98.
^a Inhibition constants were measured in 0.1M Hepes, 0.01M CaCl2
pH 7.5 for trypsin, granzymes A, and K, and in 0.1M Hepes, 10% glycerol,
10 mM heparin, pH 7.5 for mast cell tryptase, and at 25° C. The
reaction mixtures contained 2% DMSO for trypsin, 7.6% for granzyme A, and
7.1% for granzyme K and tryptase. The substrate was Z--Arg--SBzl for
granzymes and trypsin, and Z--Arg--SBzl or Z--Lys--SBzl for tryptase in
the presence of DTNB. The inhibitor # concentration ranged from 0.001 to
^b NI, no inhibition after 25 min of incubation with enzyme.

The target in assay [5] is T3, bovine trypsin (Bos taurus, UniProt P00760).
T3 sequence (P00760 24-246): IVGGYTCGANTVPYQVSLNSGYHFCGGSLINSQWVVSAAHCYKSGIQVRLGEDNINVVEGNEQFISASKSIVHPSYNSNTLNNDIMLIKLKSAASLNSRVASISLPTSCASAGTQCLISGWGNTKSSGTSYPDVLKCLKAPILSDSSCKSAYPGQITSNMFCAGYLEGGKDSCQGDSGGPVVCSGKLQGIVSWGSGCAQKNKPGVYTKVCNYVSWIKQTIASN
Nature of the assay: Inactivation rate of bovine trypsin, incubation method. Particulars: for kobsd /[I] bovine trypsin: Table I, 0.1M Hepes, 0.01M CaCl2 pH 7.5, 25° C., 2% DMSO, substrate Z--Arg--SBzl, NI = no inhibition after 25 min; for kobs /[I] bovine trypsin: Table II, 0.13 μM trypsin, 0.25-42 μM inhibitor, 80 mM Hepes pH 7.5, 1 mM CaCl2, 8% DMSO, 25° C., NI = no inhibition. The gist of the method: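 Incubation method: trypsin pre-incubated with inhibitor (0.25-42 μM) at 25° C in 80 mM Hepes, 1 mM CaCl2, pH 7.5, 8% DMSO; aliquots withdrawn over time for residual activity on Z-Arg-SBzl thioester with DTNB or 4,4'-dithiodipyridine. Pseudo-first-order kobs from ln vt/vo versus time.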

Assay [6] deals with T4, human thrombin (Homo sapiens, UniProt P00734).
T4 construct: bovine trypsin, human thrombin
Particulars: Table II; 0.07 μM thrombin, 0.25-42 μM inhibitor, 80 mM Hepes pH 7.5, 428 mM NaCl, 8% DMSO, 25° C.; NI = no inhibition. The method, boiled down: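 Irreversible inactivation followed by incubation method at 25 °C: 0.07 μM thrombin with 0.25–42 μM inhibitor in 80 mM Hepes pH 7.5, 428 mM NaCl, 8% DMSO. Residual activity of withdrawn aliquots measured with thioester or 4-nitroanilide substrates; kobs from pseudo-first-order fits.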

Sequence of mast cell tryptase (Q15661 31-275): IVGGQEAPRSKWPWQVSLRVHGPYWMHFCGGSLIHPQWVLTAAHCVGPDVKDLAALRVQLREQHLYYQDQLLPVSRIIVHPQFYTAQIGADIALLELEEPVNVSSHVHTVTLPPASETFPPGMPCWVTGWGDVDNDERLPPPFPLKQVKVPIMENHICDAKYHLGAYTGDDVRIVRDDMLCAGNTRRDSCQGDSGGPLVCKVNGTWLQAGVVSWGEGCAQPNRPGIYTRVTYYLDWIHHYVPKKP

Take `Cl.N=C(N)c1ccc(C(NC(=O)C=Cc2cccs2)P(=O)(Oc2ccccc2)Oc2ccccc2)cc1` (centres unmarked) [Diphenyl N-(3-(2-Thienyl)acryloyl)amino(4-amidinophenyl)methanephosphonate Hydrochloride]: in assay [1], the “kobsd /[I] rat granzyme K” value is 4 M⁻¹ s⁻¹. Further, the “kobsd /[I] human granzyme A” value in assay [2] was found to be 740 ± 18 M⁻¹ s⁻¹. Further, in assay [3], the “kobsd /[I] mast cell tryptase” value amounted to 1 M⁻¹ s⁻¹ and the “kobs /[I] mast cell tryptase” value was 1 M⁻¹ s⁻¹. Also, the “kobsd /[I] rat granzyme A” value in assay [4] is 430 ± 31 M⁻¹ s⁻¹. For the same compound, in assay [5], the “kobsd /[I] bovine trypsin” value is 300 ± 22 M⁻¹ s⁻¹ and the “kobs /[I] bovine trypsin” value came out at 300 ± 22 M⁻¹ s⁻¹. For the same compound, in assay [6], the “kobs /[I] human thrombin” value came out at 90 ± 4 M⁻¹ s⁻¹.

With `N=C(N)c1ccc(C(NC(=O)C(CCCCN)NC(=O)OCc2ccccc2)P(=O)(Oc2ccccc2)Oc2ccccc2)cc1` (mixture of isomers) [Cbz--Lys-(4-AmPhGly)^P (OPh)2], in assay [1], the “kobsd /[I] rat granzyme K” value is 1 M⁻¹ s⁻¹. For the same compound, the “kobsd /[I] human granzyme A” value in assay [2] worked out at 30 ± 1 M⁻¹ s⁻¹. The “kobsd /[I] rat granzyme A” value in assay [4] was 15 ± 1 M⁻¹ s⁻¹. Also, in assay [5], the “kobsd /[I] bovine trypsin” value was 30 ± 1 M⁻¹ s⁻¹ and the “kobs /[I] bovine trypsin” value turned out to be 30 ± 1 M⁻¹ s⁻¹. In assay [6], the “kobs /[I] human thrombin” value was 88 ± 2 M⁻¹ s⁻¹.

Turning to `CC(NC(=O)OCc1ccccc1)C(=O)NC(C)C(=O)NC(C)C(=O)NC(c1ccc(C(=N)N)cc1)P(=O)(Oc1ccccc1)Oc1ccccc1` (mixture of isomers) [Cbz--Ala--Ala--Ala-(4-AmPhGly)^P (OPh)2], the “kobsd /[I] rat granzyme K” value in assay [1] was found to be 7 M⁻¹ s⁻¹. The “kobsd /[I] human granzyme A” value in assay [2] came out at 730 ± 15 M⁻¹ s⁻¹. Besides, in assay [3], the “kobsd /[I] mast cell tryptase” value is 2 M⁻¹ s⁻¹ and the “kobs /[I] mast cell tryptase” value stood at 2.0 ± 0.2 M⁻¹ s⁻¹. Besides, in assay [4], the “kobsd /[I] rat granzyme A” value worked out at 590 ± 17 M⁻¹ s⁻¹. In assay [5], the “kobsd /[I] bovine trypsin” value worked out at 1780 ± 33 M⁻¹ s⁻¹ and the “kobs /[I] bovine trypsin” value is 1,780 ± 33 M^-1 s^-1. The “kobs /[I] human thrombin” value in assay [6] is on record as 1,290 ± 26 M^-1 s^-1.

Turning to `Cl.N=C(N)c1ccc(C(NC(=O)c2cccc(Oc3ccccc3)c2)P(=O)(Oc2ccccc2)Oc2ccccc2)cc1` (centres unmarked) [3-Phenoxybenzoyl-(4-AmPhGly)^P (OPh)2, Diphenyl N-(3-Phenoxybenzoyl)amino(4-amidinophenyl)methanephosphonate Hydrochloride], in assay [1], the “kobsd /[I] rat granzyme K” value came out at 1 M⁻¹ s⁻¹. In addition, the “kobsd /[I] human granzyme A” value in assay [2] was 340 ± 53 M⁻¹ s⁻¹. Further, the “kobsd /[I] rat granzyme A” value in assay [4] was 470 ± 14 M⁻¹ s⁻¹. For the same compound, in assay [5], the “kobsd /[I] bovine trypsin” value was 50 ± 2 M⁻¹ s⁻¹ and the “kobs /[I] bovine trypsin” value came out at 50 ± 2 M⁻¹ s⁻¹. Moreover, in assay [6], the “kobs /[I] human thrombin” value worked out at 200 ± 8 M⁻¹ s⁻¹.

For `Cl.N=C(N)c1ccc(C(NC(=O)/C=C/c2ccccc2)P(=O)(Oc2ccccc2)Oc2ccccc2)cc1` (stereo not drawn) [trans-Cinnamoyl-(4-AmPhGly)^P (OPh)2, Diphenyl N-(trans-Cinnamoyl)amino(4-amidinophenyl)methanephosphonate Hydrochloride], the “kobsd /[I] rat granzyme K” value in assay [1] turned out to be 3 M⁻¹ s⁻¹. Also, in assay [2], the “kobsd /[I] human granzyme A” value was 400 ± 10 M⁻¹ s⁻¹. For the same compound, in assay [3], the “kobsd /[I] mast cell tryptase” value worked out at 0.3 M⁻¹ s⁻¹ and the “kobs /[I] mast cell tryptase” value was 0.3 M⁻¹ s⁻¹. Besides, in assay [4], the “kobsd /[I] rat granzyme A” value worked out at 340 ± 18 M⁻¹ s⁻¹. Also, in assay [5], the “kobsd /[I] bovine trypsin” value is 110 ± 1 M⁻¹ s⁻¹ and the “kobs /[I] bovine trypsin” value was determined as 110 ± 1 M⁻¹ s⁻¹. In addition, the “kobs /[I] human thrombin” value in assay [6] worked out at 20 ± 1 M⁻¹ s⁻¹.

Regarding `C[C@H](NC(=O)OCc1ccccc1)C(=O)N[C@@H](C)C(=O)NC(c1ccc(C(=N)N)cc1)P(=O)(Oc1ccccc1)Oc1ccccc1` (some centres unmarked) [Cbz--Ala--Ala-(4-AmPhGly)^P (OPh)2], the “kobsd /[I] rat granzyme K” value in assay [1] was 5 M⁻¹ s⁻¹. For the same compound, in assay [2], the “kobsd /[I] human granzyme A” value amounted to 820 ± 29 M⁻¹ s⁻¹. In assay [3], the “kobsd /[I] mast cell tryptase” value is 2 M⁻¹ s⁻¹ and the “kobs /[I] mast cell tryptase” value is 2 ± 0 M⁻¹ s⁻¹. In assay [4], the “kobsd /[I] rat granzyme A” value worked out at 480 ± 27 M⁻¹ s⁻¹. For the same compound, in assay [5], the “kobsd /[I] bovine trypsin” value came out at 3620 ± 588 M⁻¹ s⁻¹ and the “kobs /[I] bovine trypsin” value was 3,620 ± 588 M^-1 s^-1. The “kobs /[I] human thrombin” value in assay [6] is given as 3,030 ± 222 M^-1 s^-1.

As for `N=C(N)c1ccc(C(NC(=O)Oc2cccc3ccccc23)P(=O)(Oc2ccccc2)Oc2ccccc2)cc1` (centres unmarked) [1-Naphthyloxycarbonyl-(4-AmPhGly)^P (OPh)2], in assay [1], the “kobsd /[I] rat granzyme K” value worked out at 12 M⁻¹ s⁻¹. Besides, in assay [2], the “kobsd /[I] human granzyme A” value was 160 ± 2 M⁻¹ s⁻¹. The “kobsd /[I] rat granzyme A” value in assay [4] stood at 90 ± 9 M⁻¹ s⁻¹. In assay [5], the “kobsd /[I] bovine trypsin” value turned out to be 30 ± 1 M⁻¹ s⁻¹ and the “kobs /[I] bovine trypsin” value turned out to be 30 ± 1 M⁻¹ s⁻¹. Besides, the “kobs /[I] human thrombin” value in assay [6] was 30 ± 2 M⁻¹ s⁻¹.

For the compound `Cl.N=C(N)c1ccc(C(NC(=O)C=Cc2ccco2)P(=O)(Oc2ccccc2)Oc2ccccc2)cc1` (centres unmarked) [(2-Furyl)acryloyl-(4-AmPhGly)^P (OPh)2, Diphenyl N-(3-(2-Furyl)acryloyl)amino(4-amidinophenyl)methanephosphonate Hydrochloride], the “kobsd /[I] rat granzyme K” value in assay [1] stood at 32 M⁻¹ s⁻¹. Further, the “kobsd /[I] human granzyme A” value in assay [2] was found to be 1740 ± 41 M⁻¹ s⁻¹. The “kobsd /[I] rat granzyme A” value in assay [4] amounted to 1740 ± 237 M⁻¹ s⁻¹. Also, in assay [5], the “kobsd /[I] bovine trypsin” value stood at 360 ± 28 M⁻¹ s⁻¹ and the “kobs /[I] bovine trypsin” value was determined as 360 ± 28 M⁻¹ s⁻¹. In addition, the “kobs /[I] human thrombin” value in assay [6] worked out at 15 ± 1 M⁻¹ s⁻¹.
